The results in this text go back to US20200030214A1, “USE OF COMPATIBLE SOLUTES” (MERCK PATENT GMBH, priority 2017, published 2020).

Common to all, as to type: cell-based
The test system of assay [1] is HaCaT keratinocytes. Put plainly: Effect of ectoin on suppression of intracellular carbonylated protein accumulation induced by oleic acid. The conditions noted are these: 100 mM ectoin pre-treatment for 24 h, then 200 μM oleic acid for 48 h; FIG. 2. On the procedure: The effect of ectoin on carbonylated protein accumulation is analysed. In order to induce Hsp70, HaCaT keratinocytes are cultured with 100 mM ectoin (Merck KGaA, Germany) for 24 h. Cells are cultured with oleic acid for further 48 hours, and CP levels are determined. In this examination, 200 μM oleic acid is used to evaluate the effect of ectoin on CP accumulation in the cells. HaCaT keratinocytes are cultured in DMEM containing 5% FBS and 100 mM ectoin for 24 h. Cells are further cultured with DMEM containing 200 μM oleic acid for 48 h. After fixing with cold methanol for 5 min, cells are reacted with 20 μmol/L FTSC in 0.1 mol/L MES-Na buffer (pH 5.5) at room temperature for 1 h. Fluorescence intensities derived from CPs are measured at Ex/Em 492 nm/516 nm with a fluorescence microplate reader, TECAN SPARK 10M (Mannedorf, Switzerland). Numbers of cells are determined by measuring fluorescence intensities of nuclei stained with Hoechst 33342. Intracellular CP levels are calculated as fluorescence intensity of FTSC per fluorescence intensities of nuclei.

In assay [2] the test system is HaCaT keratinocytes. In words: Protective effect against UVA induced carbonylated protein formation (SDS-PAGE, fluorescent labelling). The conditions noted are these: 24 h, UVA 365 nm 33 J/cm^2, in comparison to the control, FIGS. 3 and 4. How it is done:
(§1) HaCaT keratinocytes are cultured in calcium-free DMEM (Dulbecco's Modified Eagle Medium), with 10% SVF, at 37° C. and humid atmosphere, supplemented with 5% CO2 for 24 h.
(§2) After this initial time period the cell cultures are treated with the respective active compound. A non treated sample is used as reference.
(§3) The following active compounds are used in the above method: • Ectoin (Merck KGaA, Germany) 0.5% w/v dissolved in culture medium. • Ectoin (Merck KGaA, Germany) 0.3% w/v dissolved in culture medium • N-acetyl-cysteine (NAC) (Sigma-Aldrich) 2.5 mM, as internal reference
(§4) After a time period of 24 h, stress is induced in the samples by treatment with blue light irradiation (460 nm) or UVA irradiation (365 nm). In addition, samples not treated with an active compound are left non-irradiated for comparison.
UVA irradiation (365 nm): • Source: LED • Irradiance: 50 mW/cm^2 • Dose: 33 J/cm^2 (i.e. less intense than 15 minutes at noon in the middle European sunlight) • Irradiation time: 11 min […]
(§5) In situ detection of carbonylated proteins: After thawing of the samples, protein extraction from cells is performed using OxiProteomics' validated protocols. Extracted proteins are solubilized and quantified by the Bradford method (Bradford, 1976, Anal. Biochem., 72, 248) using calibrated BSA as standard. […] Quantification is obtained from each sample, both for carbonylated and total proteins.

Assay [3] has as its system HaCaT keratinocytes. Put plainly: Protective effect against blue light induced carbonylated protein formation (SDS-PAGE, fluorescent labelling). The conditions noted are these: 24 h, blue light 460 nm 35 J/cm^2, FIGS. 5 and 6. On the procedure: as §1, §2, §3, §4
Blue light irradiation (460 nm): • Source: LED • Irradiance: 53 mW/cm^2 • Dose: 35 J/cm^2 (corresponding to the emission of a computer screen during 8 h/d for 3 days) • Irradiation time: 11 min […]
as §5

The test system of assay [4] is HaCaT keratinocytes. In words: Intracellular carbonylated protein (CP) levels in HaCaT keratinocytes cultured with oleic acid (FTSC fluorescence). The note with it: HaCaT keratinocytes cultured in DMEM containing oleic acid at several concentrations for 48 h; FIG. 1. How it is done: Protein carbonylation is initiated by reactive aldehyde compounds which are synthesized by lipid peroxidation. Since skin pores are always immersed by sebum, oleic acid which is one of the sebum components, is used as a source of intracellular synthesis of reactive aldehyde compounds to establish cells with accumulated carbonylated proteins.
Cell culture: HaCaT keratinocytes are cultured in Dulbeco's modified Eagle's medium (DMEM) (Nissui, Tokyo, Japan) supplemented with 5% fetal bovine serum (FBS) (Thermofisher, Waltham, Calif., USA) at 37° C. in 5% CO2 and 95% air.
For this example HaCaT keratinocytes are cultured in DMEM containing oleic acid at several concentrations for 48 h. After fixing with cold methanol for 5 min, cells are reacted with 20 μmol/L FTSC (Sigma-Aldrich, St. Louis, Mo., USA in 0.1 mol/L MES-Na buffer (pH 5.5) at room temperature for 1 h. Fluorescence intensities derived from CPs are measured at Ex/Em 492 nm/516 nm with a fluorescence microplate reader, TECAN SPARK 10M (Mannedorf, Switzerland). Numbers of cells are determined by measuring fluorescence intensities of nuclei stained with Hoechst 33342 (Sigma-Aldrich (St. Louis, Mo., USA)). Intracellular CP levels are calculated as fluorescence intensity of FTSC per fluorescence intensities of nuclei.

For the compound `CC1=N[C@H](C(=O)O)CCN1` [ectoin, (S)-1,4,5,6-tetrahydro-2-methyl-4-pyrimidincarboxylic acid], the “CP accumulation through oleic acid” value in assay [1] is reported as “suppression of CP accumulation”. Also, the “protective effect against UVA induced protein carbonylation” value in assay [2] (ectoin 0.3% w/v) is “significant protective effect”; in assay [2] (ectoin 0.5% w/v) it was “No significant comparison”. Moreover, the “protective effect against blue light induced protein carbonylation” value in assay [3] (ectoin 0.3% w/v) and in assay [3] (ectoin 0.5% w/v) was “significant protective effect” in each case.

Regarding `CCCCCCCC/C=C\CCCCCCCC(=O)O` [oleic acid], in assay [4], the “level of intracellular CPs” value was “higher level of intracellular CPs”.
